The target of this assay is Histone deacetylase 4 (Homo sapiens, UniProt P56524). Nature of the assay: Biochemical HDAC-4 Assay. The method, then: 5 μl of each solution of 1:20 diluted compound from above is transferred to a clear bottomed, black, 384-well assay plate using the Bravo or the Janus (384-well MDT head from Perkin Elmer). Using a 16-channel Matrix multi-channel pipette, 35 μl of the working solution of HDAC4 catalytic domain enzyme (0.2 μg/ml in assay buffer) is transferred to the assay plate. The assay is then started by adding 10 μl of 5× (50 μM) substrate to the assay plates using either the Bravo, Janus or 16-channel Matrix multi-channel pipette. The assay plate is then shaken for two minutes on an orbital shaker at 900 rpm (rotations per minute). Next the plate is incubated for 15 minutes at 37° C. The reaction is stopped by adding 25 μl of 3× (30 μM) developer/stop solution to the assay plates using either the Bravo, Janus or a 16-channel Matrix multi-channel pipette. Assay plates are then shaken for 5 minutes on an orbital shaker at 1200 rpm. Next, the assay plates are incubated at 37° C. for 1 hour in a tissue culture incubator. Finally, the fluorescence is measured (Excitation: 355 nm, Emission: 460 nm) using PerkinElmer EnVision in top read mode.
Chain of Histone deacetylase 4 (P56524 whole entry, the tested form may be a part): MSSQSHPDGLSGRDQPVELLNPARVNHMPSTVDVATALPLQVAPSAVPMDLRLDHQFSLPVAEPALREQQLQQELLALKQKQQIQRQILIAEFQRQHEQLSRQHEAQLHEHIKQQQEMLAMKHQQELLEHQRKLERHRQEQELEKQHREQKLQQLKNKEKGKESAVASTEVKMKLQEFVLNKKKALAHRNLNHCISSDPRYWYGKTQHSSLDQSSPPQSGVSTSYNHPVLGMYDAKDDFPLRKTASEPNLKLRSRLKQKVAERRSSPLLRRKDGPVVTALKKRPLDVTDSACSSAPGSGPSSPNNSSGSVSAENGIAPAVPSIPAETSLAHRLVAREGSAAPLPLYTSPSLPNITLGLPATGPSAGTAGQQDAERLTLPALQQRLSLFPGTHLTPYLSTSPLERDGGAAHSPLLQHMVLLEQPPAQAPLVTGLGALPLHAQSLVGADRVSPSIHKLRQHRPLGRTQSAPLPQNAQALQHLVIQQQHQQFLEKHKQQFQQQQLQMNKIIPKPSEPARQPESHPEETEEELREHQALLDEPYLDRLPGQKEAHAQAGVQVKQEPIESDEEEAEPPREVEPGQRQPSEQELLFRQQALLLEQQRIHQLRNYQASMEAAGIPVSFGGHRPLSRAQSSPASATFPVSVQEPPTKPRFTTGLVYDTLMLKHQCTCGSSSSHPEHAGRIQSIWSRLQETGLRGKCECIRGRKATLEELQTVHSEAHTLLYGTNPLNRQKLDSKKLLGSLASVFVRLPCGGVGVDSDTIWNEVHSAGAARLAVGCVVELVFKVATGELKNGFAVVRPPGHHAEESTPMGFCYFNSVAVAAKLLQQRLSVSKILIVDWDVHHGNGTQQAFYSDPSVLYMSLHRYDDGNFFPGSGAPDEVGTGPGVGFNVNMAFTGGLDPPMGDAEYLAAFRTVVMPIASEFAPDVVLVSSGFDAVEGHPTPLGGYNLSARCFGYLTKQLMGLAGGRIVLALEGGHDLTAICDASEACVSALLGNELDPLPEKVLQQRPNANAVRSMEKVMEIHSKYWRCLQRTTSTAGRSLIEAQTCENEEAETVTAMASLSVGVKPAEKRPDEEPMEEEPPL

The IC50 is the concentration that inhibits the measured activity by half. Higher therefore signals weaker potency in that assay. `O=C(NO)C1C=CCC1c1ccccc1` (stereo unspecified) [US10106535, Example 30] showed an IC50 of 12.3 µM.
